This note sets out measurements from ChEMBL document CHEMBL1201862, “PubChem BioAssay data set” (2004).

The structures appear in SMILES notation. The source made the active and inactive calls. Some results are limits rather than exact numbers.

Assay type in all cases: functional
Assay [1] addresses T1, Rac GTPase-activating protein 1 (Homo sapiens, UniProt Q9H0H5).
T1 sequence (Q9H0H5 whole entry): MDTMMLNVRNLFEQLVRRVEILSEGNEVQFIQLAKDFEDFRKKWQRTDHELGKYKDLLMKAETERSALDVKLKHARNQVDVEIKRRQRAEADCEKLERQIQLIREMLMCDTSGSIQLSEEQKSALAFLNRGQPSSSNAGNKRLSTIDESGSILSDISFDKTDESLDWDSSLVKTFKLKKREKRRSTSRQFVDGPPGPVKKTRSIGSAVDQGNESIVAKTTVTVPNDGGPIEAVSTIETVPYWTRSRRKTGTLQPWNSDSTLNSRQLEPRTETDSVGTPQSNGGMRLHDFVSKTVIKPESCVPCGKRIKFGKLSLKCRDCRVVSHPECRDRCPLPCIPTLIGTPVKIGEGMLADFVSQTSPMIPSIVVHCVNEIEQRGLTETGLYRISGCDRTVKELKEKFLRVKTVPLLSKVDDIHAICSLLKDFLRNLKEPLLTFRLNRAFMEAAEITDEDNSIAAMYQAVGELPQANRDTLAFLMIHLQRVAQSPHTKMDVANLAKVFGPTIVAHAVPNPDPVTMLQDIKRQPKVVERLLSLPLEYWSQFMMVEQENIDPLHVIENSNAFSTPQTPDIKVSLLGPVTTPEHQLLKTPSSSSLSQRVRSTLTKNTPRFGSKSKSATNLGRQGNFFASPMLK
As to the kind of experiment: blockers of MgcRacGAP-driven Rac1 GTP hydrolysis – biochemical, ADP Hunter fluorescence, primary and confirmatory, confirmation (AID 624330).

For assay [2], the target named is Hepatocyte growth factor receptor (Homo sapiens, UniProt P08581).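 Note: kinase panel profiling across the kinome, with MET as the panel member.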
For assay [3], the target named is Cyclin-dependent kinase 8 (Homo sapiens, UniProt P49336). Nature of the assay: Navigating the Kinome. Panel member name: CDK8.
Sequence of Cyclin-dependent kinase 8 (P49336 whole entry): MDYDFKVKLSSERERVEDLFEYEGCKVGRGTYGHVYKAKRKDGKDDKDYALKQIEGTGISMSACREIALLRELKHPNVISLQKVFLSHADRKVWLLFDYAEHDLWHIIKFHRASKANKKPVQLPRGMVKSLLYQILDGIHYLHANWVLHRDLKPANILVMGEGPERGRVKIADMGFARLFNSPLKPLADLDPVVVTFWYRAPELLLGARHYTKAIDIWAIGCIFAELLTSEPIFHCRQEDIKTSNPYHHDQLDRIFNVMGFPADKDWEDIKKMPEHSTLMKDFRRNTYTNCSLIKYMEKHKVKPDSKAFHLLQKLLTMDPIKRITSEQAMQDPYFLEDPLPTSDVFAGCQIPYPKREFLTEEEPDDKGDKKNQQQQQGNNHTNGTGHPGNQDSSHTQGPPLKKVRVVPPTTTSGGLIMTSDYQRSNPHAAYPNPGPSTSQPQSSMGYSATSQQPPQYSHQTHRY
In assay [4] the target is Cyclin-dependent kinase 9 (Homo sapiens, UniProt P50750).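 Note: value from the CDK9 entry of a kinome-spanning kinase panel.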
Sequence of Cyclin-dependent kinase 9 (P50750 whole entry): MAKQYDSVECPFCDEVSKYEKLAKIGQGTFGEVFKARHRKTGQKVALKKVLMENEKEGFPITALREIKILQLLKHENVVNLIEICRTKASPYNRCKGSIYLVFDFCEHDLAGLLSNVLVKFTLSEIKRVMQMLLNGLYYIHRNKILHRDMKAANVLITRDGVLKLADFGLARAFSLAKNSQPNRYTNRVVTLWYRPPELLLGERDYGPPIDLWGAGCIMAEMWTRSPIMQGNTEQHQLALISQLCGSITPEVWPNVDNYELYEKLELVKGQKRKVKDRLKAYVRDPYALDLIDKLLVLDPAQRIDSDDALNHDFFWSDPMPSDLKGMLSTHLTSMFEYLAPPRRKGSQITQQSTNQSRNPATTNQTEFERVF
The target of assay [5] is T2, Serine/threonine-protein kinase D3 (Homo sapiens, UniProt O94806).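 Note: determined within a kinase panel screen, with PRKCN as the panel member.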
T2 sequence (O94806 whole entry): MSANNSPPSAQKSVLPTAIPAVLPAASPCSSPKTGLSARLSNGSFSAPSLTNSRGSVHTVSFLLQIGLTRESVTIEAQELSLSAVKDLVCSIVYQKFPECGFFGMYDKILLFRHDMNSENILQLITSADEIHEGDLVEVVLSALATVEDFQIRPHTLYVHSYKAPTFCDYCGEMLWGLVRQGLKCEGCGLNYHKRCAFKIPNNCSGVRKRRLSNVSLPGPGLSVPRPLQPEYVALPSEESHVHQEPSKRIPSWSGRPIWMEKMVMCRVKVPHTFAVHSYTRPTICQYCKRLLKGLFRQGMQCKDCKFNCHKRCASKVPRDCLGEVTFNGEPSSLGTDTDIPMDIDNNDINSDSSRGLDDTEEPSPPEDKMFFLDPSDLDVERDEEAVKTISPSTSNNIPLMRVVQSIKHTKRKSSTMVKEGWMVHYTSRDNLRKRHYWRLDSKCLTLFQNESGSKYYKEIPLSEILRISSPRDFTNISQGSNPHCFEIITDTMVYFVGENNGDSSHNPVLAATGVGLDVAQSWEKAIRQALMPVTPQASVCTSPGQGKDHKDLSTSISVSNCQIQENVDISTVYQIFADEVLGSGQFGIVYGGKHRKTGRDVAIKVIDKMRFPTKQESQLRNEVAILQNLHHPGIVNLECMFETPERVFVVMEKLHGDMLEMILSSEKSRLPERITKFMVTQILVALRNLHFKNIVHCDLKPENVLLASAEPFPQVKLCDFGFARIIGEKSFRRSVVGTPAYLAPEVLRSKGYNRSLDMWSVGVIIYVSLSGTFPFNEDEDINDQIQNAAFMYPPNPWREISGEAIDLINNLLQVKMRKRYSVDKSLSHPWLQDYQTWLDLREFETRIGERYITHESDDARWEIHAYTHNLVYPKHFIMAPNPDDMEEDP

Assay [6] has as its target Leukocyte tyrosine kinase receptor (Homo sapiens, UniProt P29376). Nature of the assay: Navigating the Kinome. Panel member name: LTK.
For assay [7], the target named is Vascular endothelial growth factor receptor 1 (Homo sapiens, UniProt P17948).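 Note: measured within a kinome-wide profiling panel, FLT1 as the panel member.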
Sequence of Vascular endothelial growth factor receptor 1 (P17948 whole entry): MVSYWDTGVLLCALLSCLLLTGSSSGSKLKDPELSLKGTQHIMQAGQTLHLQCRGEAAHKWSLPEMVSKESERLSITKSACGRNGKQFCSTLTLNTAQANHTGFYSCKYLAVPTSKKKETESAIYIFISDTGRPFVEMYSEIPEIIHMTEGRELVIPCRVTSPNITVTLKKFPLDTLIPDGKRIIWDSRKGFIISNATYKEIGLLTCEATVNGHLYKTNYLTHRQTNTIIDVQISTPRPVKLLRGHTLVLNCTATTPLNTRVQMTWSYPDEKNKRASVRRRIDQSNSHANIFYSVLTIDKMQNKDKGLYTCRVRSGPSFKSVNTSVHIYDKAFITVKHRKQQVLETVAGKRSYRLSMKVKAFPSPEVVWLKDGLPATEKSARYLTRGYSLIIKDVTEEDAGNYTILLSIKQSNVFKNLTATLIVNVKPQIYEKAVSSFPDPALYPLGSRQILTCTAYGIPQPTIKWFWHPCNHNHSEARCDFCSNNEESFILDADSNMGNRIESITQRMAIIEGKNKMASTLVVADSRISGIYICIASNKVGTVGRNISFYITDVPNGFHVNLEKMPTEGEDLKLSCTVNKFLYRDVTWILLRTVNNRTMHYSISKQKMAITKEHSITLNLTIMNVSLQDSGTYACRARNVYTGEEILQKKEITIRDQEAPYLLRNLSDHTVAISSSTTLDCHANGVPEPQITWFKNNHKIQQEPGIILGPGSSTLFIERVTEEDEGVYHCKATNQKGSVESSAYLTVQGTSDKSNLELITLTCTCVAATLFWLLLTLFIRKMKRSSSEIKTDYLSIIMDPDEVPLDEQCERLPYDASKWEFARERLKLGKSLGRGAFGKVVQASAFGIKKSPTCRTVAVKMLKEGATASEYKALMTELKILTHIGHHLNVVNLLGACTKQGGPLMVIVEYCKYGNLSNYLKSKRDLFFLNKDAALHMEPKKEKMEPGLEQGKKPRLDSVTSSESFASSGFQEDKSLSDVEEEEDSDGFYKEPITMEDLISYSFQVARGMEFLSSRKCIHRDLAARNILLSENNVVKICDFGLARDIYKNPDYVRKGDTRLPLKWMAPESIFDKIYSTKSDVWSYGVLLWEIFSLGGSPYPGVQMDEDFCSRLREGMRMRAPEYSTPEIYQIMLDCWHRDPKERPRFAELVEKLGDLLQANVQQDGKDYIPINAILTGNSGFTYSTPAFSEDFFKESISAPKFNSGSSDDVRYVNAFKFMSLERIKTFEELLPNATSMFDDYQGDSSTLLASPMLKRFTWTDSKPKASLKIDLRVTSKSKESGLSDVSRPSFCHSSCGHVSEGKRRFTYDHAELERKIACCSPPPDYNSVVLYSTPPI
Assay [8] addresses Platelet-derived growth factor receptor alpha (Homo sapiens, UniProt P16234). As to the kind of experiment: Navigating the Kinome. Panel member name: PDGFRA.
Assay [9] has as its target T3, Serine/threonine-protein kinase Nek2 (Homo sapiens, UniProt P51955).
T3 sequence (P51955 whole entry): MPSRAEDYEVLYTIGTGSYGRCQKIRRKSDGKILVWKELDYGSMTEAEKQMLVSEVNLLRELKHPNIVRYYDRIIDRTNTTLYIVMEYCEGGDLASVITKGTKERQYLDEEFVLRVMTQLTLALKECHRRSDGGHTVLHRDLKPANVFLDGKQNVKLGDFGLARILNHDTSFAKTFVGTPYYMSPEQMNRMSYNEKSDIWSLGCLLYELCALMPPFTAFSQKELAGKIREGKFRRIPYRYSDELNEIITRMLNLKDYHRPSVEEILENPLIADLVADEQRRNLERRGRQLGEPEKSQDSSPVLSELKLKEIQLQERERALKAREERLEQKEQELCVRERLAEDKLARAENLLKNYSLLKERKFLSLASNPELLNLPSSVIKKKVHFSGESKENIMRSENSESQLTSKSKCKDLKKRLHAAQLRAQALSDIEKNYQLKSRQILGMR

Assay [10] addresses Death-associated protein kinase 3 (Homo sapiens, UniProt O43293).
Assay [11] concerns the target Dual specificity tyrosine-phosphorylation-regulated kinase 1B (Homo sapiens, UniProt Q9Y463). As to the kind of experiment: Navigating the Kinome. Panel member name: DYRK1B.

Sequence of Leukocyte tyrosine kinase receptor (P29376 whole entry): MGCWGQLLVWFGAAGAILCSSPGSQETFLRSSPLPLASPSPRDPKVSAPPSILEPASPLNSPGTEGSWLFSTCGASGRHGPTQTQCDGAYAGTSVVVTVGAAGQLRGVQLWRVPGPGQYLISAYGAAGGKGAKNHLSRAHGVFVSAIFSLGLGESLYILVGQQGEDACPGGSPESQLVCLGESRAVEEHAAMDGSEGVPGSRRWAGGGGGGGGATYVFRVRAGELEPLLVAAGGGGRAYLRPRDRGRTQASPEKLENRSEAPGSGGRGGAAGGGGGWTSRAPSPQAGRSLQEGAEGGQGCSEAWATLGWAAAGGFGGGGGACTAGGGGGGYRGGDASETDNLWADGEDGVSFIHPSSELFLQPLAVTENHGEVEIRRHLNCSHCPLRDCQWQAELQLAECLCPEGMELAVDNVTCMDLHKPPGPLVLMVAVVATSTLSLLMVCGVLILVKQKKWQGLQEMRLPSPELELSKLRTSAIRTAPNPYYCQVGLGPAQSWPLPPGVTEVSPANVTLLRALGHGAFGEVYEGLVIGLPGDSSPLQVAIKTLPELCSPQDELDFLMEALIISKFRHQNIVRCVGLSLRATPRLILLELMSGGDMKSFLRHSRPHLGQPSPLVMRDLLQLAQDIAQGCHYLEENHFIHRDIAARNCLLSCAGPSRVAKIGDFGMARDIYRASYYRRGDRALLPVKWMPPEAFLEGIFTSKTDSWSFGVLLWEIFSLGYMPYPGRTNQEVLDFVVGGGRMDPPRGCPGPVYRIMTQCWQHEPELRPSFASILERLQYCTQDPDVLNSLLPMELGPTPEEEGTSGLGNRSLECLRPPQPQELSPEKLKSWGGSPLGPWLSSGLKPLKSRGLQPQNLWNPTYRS
Sequence of Platelet-derived growth factor receptor alpha (P16234 whole entry): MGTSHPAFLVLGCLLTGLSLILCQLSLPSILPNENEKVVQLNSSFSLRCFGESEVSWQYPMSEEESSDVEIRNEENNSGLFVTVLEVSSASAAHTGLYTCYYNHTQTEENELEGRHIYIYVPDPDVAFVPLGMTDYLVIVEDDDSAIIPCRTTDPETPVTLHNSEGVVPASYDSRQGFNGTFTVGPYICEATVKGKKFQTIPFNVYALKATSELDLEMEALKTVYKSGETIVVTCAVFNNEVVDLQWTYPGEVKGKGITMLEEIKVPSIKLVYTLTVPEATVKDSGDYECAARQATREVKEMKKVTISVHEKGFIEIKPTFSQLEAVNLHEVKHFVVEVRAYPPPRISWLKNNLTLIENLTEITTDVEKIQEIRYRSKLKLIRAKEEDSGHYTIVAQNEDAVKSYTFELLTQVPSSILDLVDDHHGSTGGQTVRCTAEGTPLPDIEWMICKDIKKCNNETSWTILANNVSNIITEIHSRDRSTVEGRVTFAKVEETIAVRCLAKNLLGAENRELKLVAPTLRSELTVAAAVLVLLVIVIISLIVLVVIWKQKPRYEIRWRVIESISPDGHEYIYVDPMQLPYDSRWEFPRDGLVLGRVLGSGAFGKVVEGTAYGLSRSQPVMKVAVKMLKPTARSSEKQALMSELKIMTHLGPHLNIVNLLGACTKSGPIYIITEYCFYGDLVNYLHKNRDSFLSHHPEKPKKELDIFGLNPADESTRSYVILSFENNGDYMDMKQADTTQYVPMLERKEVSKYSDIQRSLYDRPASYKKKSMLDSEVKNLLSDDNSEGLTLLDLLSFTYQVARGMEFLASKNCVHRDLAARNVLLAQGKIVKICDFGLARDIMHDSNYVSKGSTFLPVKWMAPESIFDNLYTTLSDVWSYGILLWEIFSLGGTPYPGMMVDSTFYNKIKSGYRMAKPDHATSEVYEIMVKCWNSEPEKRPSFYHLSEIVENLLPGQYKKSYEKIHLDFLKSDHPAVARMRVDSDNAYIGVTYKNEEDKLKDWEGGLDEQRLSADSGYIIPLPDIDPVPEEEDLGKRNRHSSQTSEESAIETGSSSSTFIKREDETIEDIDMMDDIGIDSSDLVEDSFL
Sequence of Dual specificity tyrosine-phosphorylation-regulated kinase 1B (Q9Y463 whole entry): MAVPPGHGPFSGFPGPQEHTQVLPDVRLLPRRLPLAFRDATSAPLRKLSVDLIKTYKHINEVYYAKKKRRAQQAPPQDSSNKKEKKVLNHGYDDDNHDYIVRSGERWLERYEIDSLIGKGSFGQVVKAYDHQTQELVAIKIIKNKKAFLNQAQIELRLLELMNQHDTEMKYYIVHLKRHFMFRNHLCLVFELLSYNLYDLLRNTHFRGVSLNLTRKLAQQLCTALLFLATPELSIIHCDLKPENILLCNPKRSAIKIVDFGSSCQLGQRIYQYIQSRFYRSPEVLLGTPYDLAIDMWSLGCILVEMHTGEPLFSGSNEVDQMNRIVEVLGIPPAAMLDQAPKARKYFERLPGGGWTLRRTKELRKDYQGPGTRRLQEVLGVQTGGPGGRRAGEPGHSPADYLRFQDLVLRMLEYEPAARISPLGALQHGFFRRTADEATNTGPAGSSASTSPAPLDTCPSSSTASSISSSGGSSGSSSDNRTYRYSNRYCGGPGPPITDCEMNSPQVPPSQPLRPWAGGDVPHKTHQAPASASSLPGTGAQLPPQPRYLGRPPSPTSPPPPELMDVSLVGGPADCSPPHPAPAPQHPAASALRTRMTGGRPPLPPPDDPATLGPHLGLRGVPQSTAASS

For orientation: IC50 means the point on the concentration scale where inhibition reaches its midpoint. Take `CCN(CC)CCOc1ccc2c(c1)C(=NNC(=O)c1ccccn1)c1cc(OCCN(CC)CC)ccc1-2`: the IC50 in assay [1] is 31.3 µM (active).
The same measure, in the same setting: the figure for `O=C(O)c1ccc2c(c1)[C@@H]1C=CC[C@@H]1[C@H](c1ccccn1)N2` is 360 µM (active); for `COc1cc2cc(NC(C)=O)cc(NCc3ccccc3)c2cc1OC` it is 49.6 µM (active).
One may read the Ki as the equilibrium dissociation constant of an inhibitor or competing ligand from its target. `O=C1Nc2cc(-c3ccc(O)cc3)ccc2C1=Cc1ccc[nH]1`: the inhibition constant Ki was 2.51 µM (active) in [2]; > 3.98 µM (inactive) in assay [3]; 0.0794 µM (active) in [4]; > 3.98 µM (inactive) in assay [5]; 0.00398 µM (active) in assay [6]; 0.02 µM (active) in assay [7]. The Ki in assay [8] is 0.501 µM (active); in assay [9], > 3.16 µM (inactive); in [10] it was 0.00794 µM (active); in [11] it was 0.398 µM (active).
As for `NC(COc1cncc(-c2ccc3c(c2)C(=Cc2ccc[nH]2)C(=O)N3)c1)Cc1ccccc1` (stereo not drawn), the Ki is 0.316 µM (active) in assay [2]; 1.58 µM (active) in assay [3]; 0.158 µM (active) in [4]; 0.0158 µM (active) in assay [5]; 0.126 µM (active) in assay [6]; 0.000631 µM (active) in assay [7]. The Ki in assay [8] was 0.126 µM (active); in assay [9], 1.26 µM (active); in [10], 0.00501 µM (active); in assay [11], 0.001 µM (active).
For the compound `O=C1Cc2cc(-c3ccccc3)cnc2N1`, the Ki in [2] is 25.1 µM (active); in assay [3], 25.1 µM (active); in [4], 15.8 µM (active); in assay [5] it was 63.1 µM (active); in assay [6], 15.8 µM (active); in assay [7], 79.4 µM (active). For the same compound, the inhibition constant Ki was 39.8 µM (active) in assay [8], 39.8 µM (active) in assay [9], 39.8 µM (active) in [10] and 50.1 µM (active) in assay [11].
